In US12370161B2, “Composition for treating atopy or pruritus comprising N-acetyl or N-acyl amino acid” (STEMDR INC., priority 2017, dated 2025):
“Also recorded” adds a separate entry of the source.

Tests used:
[1] = tested on: atopic dermatitis-induced Nc/Nga mouse; assay: SCORAD clinical skin score, DNFB-induced atopic dermatitis in Nc/Nga mouse; format: in vivo; set-up: key to Mouse 1 Erythema / Mouse 2 Eschar / Mouse 2 Dryness / Mouse 2 Abrasion / Mouse 1 Edema / Mouse 1 Eschar / Mouse 1 Dryness / Mouse 1 Abrasion / Mouse 2 Erythema / Mouse 2 Edema / Mouse 3 Erythema / Mouse 3 Edema / Mouse 3 Eschar / Mouse 3 Dryness / Mouse 3 Abrasion: 0 = no symptom, 1 = mild, 2 = moderate, 3 = severe; key to Mouse 1 Sum / Mean (of Sum, SCORAD) / Mouse 3 Sum: sum of individual symptom scores, each graded 0-3; conditions: for dermatitis-treating effect of L-, L/D- and D-form (FIG. 6): Nc/Nga atopic dermatitis model, 0.1%
Protocol: In order to establish a model more similar to an atopy model than that of the Balb/c mice, atopy was induced in Nc/Nga mouse mice. Specifically, after inducing DNFB sensitization by applying 100 μL of 0.35% 2,4-dinitrofluorobenzene (DNFB) in acetone/olive oil (3:1) on the shaved back skin, dermatitis was induced by applying 100 μL of 0.15% DNFB for 4-20 days, every other day. Control mice were treated with a vehicle of the same volume (FIG. 1B).
(§1) After dissolving an N-acetyl or N-acylamino acid in phosphate-buffered saline to 0.1%, 200 μL of the solution was applied on the back skin of the mice every day, from day 22 until day 28 for the Balb/c atopic dermatitis model, and from day 15 until day 21 for the Nc/Nga atopic dermatitis model. When the N-acetyl or N-acylamino acid was treated together with DNFB, they were treated with 12-hour intervals in order to avoid direct reaction between the DNFB and the N-acetyl or N-acylamino acid. A non-treated group and a 2,4-dinitrofluorobenzene (DNFB) group were treated with phosphate-buffered saline of the same volume (FIGS. 1A-1B). As the N-acetylamino acid, products purchased from Sigma-Aldrich (USA), MP scientific (USA), TCI (Tokyo Chemical Industry, Japan), Santacruz (USA), etc. were used without purification.
(§2) The degree of skin soothing and the severity of atopic dermatitis were evaluated macroscopically according to the previously established SCORAD (SCORing Atopic Dermatitis) method (Oranje et al., 2007). The degree of symptoms such as edema, erythema, eschar, dryness, abrasion, lichenification, etc. was graded from 0 to 3 (0, no symptom; 1, mild; 2, moderate; 3, severe). The overall dermatitis score was determined from the sum of all individual scores (Table 1). The assessment was performed by an investigator who was blind to the grouping of the mice.
Skin-soothing effect and the severity of dermatitis were evaluated for the acyl derivatives of tryptophan synthesized in Example 9, the acyl derivative of alanine synthesized in Example 10 and N-palmitoylalanine (purchased from Santacruz (USA)) according to the method of Example 4 (Table 2)

[2] = tested on: pruritus caused by atopic contact dermatitis; assay: Pruritus inhibition test, pruritus induced with DNFB; format: in vivo, mouse; conditions: 0.1% in physiological saline applied once onto right ear; pruritus measured for 1 hour
Protocol: In order to investigate whether L-form, LID-form and D-form N-acetylalanine, N-acetylarginine, N-acetylthreonine and N-acetyltryptophan inhibit pruritus caused by atopic contact dermatitis, 20 μL of 0.1% 2,4-dinitrofluorobenzene (DNFB) solution and 0.1% N-acetylamino acid dissolved in physiological saline were applied once onto the right ear 10 minutes after the final treatment (day 27) with 2,4-dinitrofluorobenzene (DNFB) (Physiological saline was applied to a negative control group), and then pruritus was measured for 1 hour. FIG. 7 compares the pruritus-relieving effect of L-form N-acetylalanine, N-acetylthreonine, N-acetylarginine and N-acetyltryptophan with D/L-form and D-form N-acetylalanine and N-acetyltryptophan at 0.1% after the induction of pruritus with DNFB.

[3] = tested on: atopic dermatitis-induced Balb/c mouse; assay: SCORAD clinical skin score, DNFB-induced atopic dermatitis in Balb/c mouse; format: in vivo; set-up: key to Mouse 1 Sum / Mean (of Sum, SCORAD) / Mouse 2 Sum / Mouse 3 Sum: sum of symptom grades, each 0 (none) to 3 (severe); conditions: for skin-soothing and atopic dermatitis-treating effect (SCORAD, Table 1, FIG. 2A): Balb/c atopic dermatitis model, 0.1% topical, P<0.05 versus DNFB group; for apparent degree of dermatitis (back skin images, FIG. 2B): Balb/c, treated for 7 days, day 29; for Mouse 1 Erythema / Mouse 1 Abrasion / Mouse 1 Dryness / Mouse 1 Edema / Mouse 1 Eschar / Mouse 1 Lichenification / Mouse 1 Sum / Mouse 2 Abrasion / Mouse 2 Dryness / Mouse 2 Edema / Mouse 2 Erythema / Mouse 2 Eschar / Mouse 2 Lichenification / Mouse 2 Sum / Mouse 3 Abrasion / Mouse 3 Dryness / Mouse 3 Edema / Mouse 3 Erythema / Mouse 3 Eschar / Mouse 3 Lichenification / Mouse 3 Sum / Mean (of Sum, SCORAD): DNFB Balb/c; for Mouse 1 Erythema: 0.1% in PBS, 200 μL on back skin daily day 22-28, grade 0-3 (0 no symptom, 1 mild, 2 moderate, 3 severe); for Mouse 1 Abrasion / Mouse 1 Dryness / Mouse 1 Edema / Mouse 1 Eschar / Mouse 1 Lichenification / Mouse 1 Sum / Mouse 2 Abrasion / Mouse 2 Dryness / Mouse 2 Edema / Mouse 2 Erythema / Mouse 2 Eschar / Mouse 2 Lichenification / Mouse 2 Sum / Mouse 3 Abrasion / Mouse 3 Dryness / Mouse 3 Edema / Mouse 3 Erythema / Mouse 3 Eschar / Mouse 3 Lichenification / Mouse 3 Sum / Mean (of Sum, SCORAD): 0.1% topical day 22-28; for Mouse 1 Abrasion / Mouse 1 Dryness / Mouse 1 Edema / Mouse 1 Eschar / Mouse 1 Lichenification / Mouse 2 Abrasion / Mouse 2 Dryness / Mouse 2 Edema / Mouse 2 Erythema / Mouse 2 Eschar / Mouse 2 Lichenification / Mouse 3 Abrasion / Mouse 3 Dryness / Mouse 3 Edema / Mouse 3 Erythema / Mouse 3 Eschar / Mouse 3 Lichenification: grade 0-3; for Mouse 1 Sum / Mouse 2 Sum / Mouse 3 Sum: overall dermatitis score, sum of individual scores; for Mean (of Sum, SCORAD): mean of 3 mice
Protocol: In order to induce atopy-like dermatitis in Balb/c mice, DNFB sensitization was induced by applying 100 μL of 0.35% 2,4-dinitrofluorobenzene (DNFB) (Sigma, USA) in acetone/olive oil (3:1) on the shaved back skin of the mice. Then, dermatitis was induced by applying 100 μL of 0.25% DNFB on days 6, 9, 12, 15, 18 21, 24 and 27 on the shaved back skin. Control mice were treated with a vehicle of the same volume (FIG. 1A).
as §1, §2

IL4 = IL4 mRNA in skin tissue by quantitative real-time PCR, Balb/c; format: in vivo, mouse; conditions: atopy-induced Balb/c mice, normalized to β-actin
Protocol: (§3) After isolating total RNA from the atopy-induced skin tissue using 500 μL of Trizol (Life Technologies, USA) according to the manufacturer's protocol and synthesizing cDNA using the Superscript III reverse transcriptase (Life Technologies, USA), real-time PCR was conducted by reacting with the primers of IL4 and interferon γ to be analyzed. The real-time PCR was conducted on a StepOne Plus PCR cycler (Applied Biosystems) using SYBR Green (Applied Biosystems, Foster City, CA). The mRNA expression data were analyzed by the ΔΔCT method and were normalized to β-actin for gene detection. The primers necessary for the real-time PCR were purchased from Qiagen (USA). […] IL4 is known to induce TH2 response and interferon γ is known to induce TH1 response.

IgE = assay: Serum IgE level by ELISA, Balb/c; format: in vivo, mouse; conditions: atopy-induced Balb/c mice
Protocol: After treatment with the test substance, the mice were sacrificed and blood was taken from the heart. After isolating serum from the blood, IgE level was measured. Specifically, after attaching antibodies diluted in a buffer solution onto a 96-well plate and incubating overnight at 4° C., experiment was conducted using an IgE ELISA kit (BD Biosciences, San Diego, CA) according to the provided manual. The quantity of the IgE protein was determined by measuring absorbance at 450 nm using a microplate reader.

interferon γ = assay: Interferon γ mRNA in skin tissue by quantitative real-time PCR, Balb/c; format: in vivo, mouse; conditions: atopy-induced Balb/c mice, normalized to β-actin
Protocol: as §3

[4] = Mouse 1, DNFB Nc/Nga, 0.1% topical day 15-21, graded per Example 4
[5] = Mouse 2, DNFB Nc/Nga, 0.1% topical day 15-21, graded per Example 4
[6] = Mouse 3, DNFB Nc/Nga, 0.1% topical day 15-21, graded per Example 4

CC(=O)N[C@@H](C)C(=O)O [D/L-form N-acetylalanine, N-acetylalanine, reference compound]
dermatitis-treating effect of L-, L/D- and D-form (FIG. 6) ([1]; listed as LID-form N-acetylalanine): no effect | pruritus-relieving effect (FIG. 7) [2]: little effect

CC(=O)N[C@@H](Cc1c[nH]c2ccccc12)C(=O)O [D/L-form N-acetyltryptophan, N-acetyltryptophan, reference compound]
dermatitis-treating effect of L-, L/D- and D-form (FIG. 6) ([1]; listed as LID-form N-acetyltryptophan): no effect | pruritus-relieving effect (FIG. 7) [2]: little effect

CC(=O)N[C@@H](CCCNC(=N)N)C(=O)O [N-acetyl-L-arginine]
skin-soothing and atopic dermatitis-treating effect (SCORAD, Table 1, FIG. 2A) [3]: significant skin-soothing and atopic dermatitis-treating effects; also recorded: significant atopic dermatitis-treating effect | apparent degree of dermatitis (back skin images, FIG. 2B) [3]: decreased remarkably | Mouse 1 Erythema [3]: 1 | Mouse 1 Abrasion [3]: 1 | Mouse 1 Dryness [3]: 1 | Mouse 1 Edema [3]: 1 | Mouse 1 Eschar [3]: 1 | Mouse 1 Lichenification [3]: 1 | Mouse 1 Sum [3]: 6 | Mouse 2 Abrasion [3]: 1 | Mouse 2 Dryness [3]: 1 | Mouse 2 Edema [3]: 1 | Mouse 2 Erythema [3]: 1 | Mouse 2 Eschar [3]: 1 | Mouse 2 Lichenification [3]: 1 | Mouse 2 Sum [3]: 6 | Mouse 3 Abrasion [3]: 0 | Mouse 3 Dryness [3]: 1 | Mouse 3 Edema [3]: 1 | Mouse 3 Erythema [3]: 1 | Mouse 3 Eschar [3]: 1 | Mouse 3 Lichenification [3]: 1 | Mouse 3 Sum [3]: 5 | Mean (of Sum, SCORAD) [3]: 5.67 | level of IL4 in the skin tissue (FIG. 5A) (IL4): significantly decreased | serum IgE level (FIG. 4A) (IgE): significant decrease | pruritus-relieving effect (FIG. 7) [2]: significantly inhibited pruritus | level of interferon γ in the skin tissue (FIG. 5A) (interferon γ): significantly decreased

CC(=O)N[C@@H](CS)C(=O)O [N-acetyl-L-cysteine, reference compound]
skin-soothing and atopic dermatitis-treating effect (SCORAD, Table 1, FIG. 2A) [3]: significant skin-soothing and atopic dermatitis-treating effects; also recorded: significant atopic dermatitis-treating effect | apparent degree of dermatitis (back skin images, FIG. 2B) [3]: decreased remarkably | Mouse 1 Erythema [3]: 2 | Mouse 1 Abrasion [3]: 2 | Mouse 1 Dryness [3]: 2 | Mouse 1 Edema [3]: 2 | Mouse 1 Eschar [3]: 2 | Mouse 1 Lichenification [3]: 3 | Mouse 1 Sum [3]: 13 | Mouse 2 Abrasion [3]: 2 | Mouse 2 Dryness [3]: 3 | Mouse 2 Edema [3]: 1 | Mouse 2 Erythema [3]: 2 | Mouse 2 Eschar [3]: 2 | Mouse 2 Lichenification [3]: 3 | Mouse 2 Sum [3]: 13 | Mouse 3 Abrasion [3]: 2 | Mouse 3 Dryness [3]: 2 | Mouse 3 Edema [3]: 2 | Mouse 3 Erythema [3]: 1 | Mouse 3 Eschar [3]: 2 | Mouse 3 Lichenification [3]: 2 | Mouse 3 Sum [3]: 11 | Mean (of Sum, SCORAD) [3]: 12.33 | level of IL4 in the skin tissue (FIG. 5A) (IL4): significantly decreased | serum IgE level (FIG. 4A) (IgE): significant decrease | level of interferon γ in the skin tissue (FIG. 5A) (interferon γ): significantly decreased

CC(=O)N[C@H](C(=O)O)[C@@H](C)O [N-acetyl-L-threonine]
skin-soothing and atopic dermatitis-treating effect (SCORAD, Table 1, FIG. 2A) [3]: significant skin-soothing and atopic dermatitis-treating effects; also recorded: significant atopic dermatitis-treating effect | apparent degree of dermatitis (back skin images, FIG. 2B) [3]: decreased remarkably | Mouse 1 Erythema [3]: 1 | Mouse 1 Abrasion [3]: 1 | Mouse 1 Dryness [3]: 2 | Mouse 1 Edema [3]: 1 | Mouse 1 Eschar [3]: 1 | Mouse 1 Lichenification [3]: 1 | Mouse 1 Sum [3]: 7 | Mouse 2 Abrasion [3]: 1 | Mouse 2 Dryness [3]: 0 | Mouse 2 Edema [3]: 1 | Mouse 2 Erythema [3]: 1 | Mouse 2 Eschar [3]: 1 | Mouse 2 Lichenification [3]: 1 | Mouse 2 Sum [3]: 5 | Mouse 3 Abrasion [3]: 0 | Mouse 3 Dryness [3]: 1 | Mouse 3 Edema [3]: 1 | Mouse 3 Erythema [3]: 1 | Mouse 3 Eschar [3]: 2 | Mouse 3 Lichenification [3]: 1 | Mouse 3 Sum [3]: 6 | Mean (of Sum, SCORAD) [3]: 6 | level of IL4 in the skin tissue (FIG. 5A) (IL4): significantly decreased | serum IgE level (FIG. 4A) (IgE): significant decrease | pruritus-relieving effect (FIG. 7) [2]: significantly inhibited pruritus | level of interferon γ in the skin tissue (FIG. 5A) (interferon γ): significantly decreased

CCCCCCCCCCC(=O)N[C@@H](Cc1c[nH]c2ccccc12)C(=O)O [N-undecanoyl L-tryptophan, N-undecanoyl-L-tryptophan]
Mouse 1 Erythema ([1]; Mouse 1, DNFB Nc/Nga (FIG. 8), 0.1% in PBS, 200 μL on back skin daily day 15-21, graded per Example 4): 1 | Mouse 1 Abrasion [1, 4]: 2 | Mouse 1 Dryness [1, 4]: 1 | Mouse 1 Edema [1, 4]: 2 | Mouse 1 Eschar [1, 4]: 1 | Mouse 1 Lichenification [1, 4]: 2 | Mouse 1 Sum ([1]; Mouse 1, DNFB Nc/Nga, 0.1% topical day 15-21, sum of individual scores): 9 | Mouse 2 Abrasion [1, 5]: 2 | Mouse 2 Dryness [1, 5]: 1 | Mouse 2 Edema [1, 5]: 1 | Mouse 2 Erythema [1, 5]: 2 | Mouse 2 Eschar [1, 5]: 2 | Mouse 2 Lichenification [1, 5]: 2 | Mouse 2 Sum ([1]; Mouse 2, DNFB Nc/Nga, 0.1% topical day 15-21, sum of individual scores): 10 | Mouse 3 Abrasion [1, 6]: 1 | Mouse 3 Dryness [1, 6]: 1 | Mouse 3 Edema [1, 6]: 2 | Mouse 3 Erythema [1, 6]: 1 | Mouse 3 Eschar [1, 6]: 2 | Mouse 3 Lichenification [1, 6]: 2 | Mouse 3 Sum ([1]; Mouse 3, DNFB Nc/Nga, 0.1% topical day 15-21, sum of individual scores): 9 | Mean (of Sum, SCORAD) ([1]; mean of 3 mice, DNFB Nc/Nga, 0.1% topical day 15-21): 9.3
